Measurements reported in article PMC11396839, “Structure-Aided Computational Design of Triazole-Based Targeted Covalent Inhibitors of Cruzipain” (Molecules, 2024).
Where “and” joins values, the source holds several entries; their conditions need not be identical. Equal entries are not always repeated. Where two headings read alike, the source gives them in different places.

What was measured:
[1] = system: T. cruzi (Tulahuen trypomastigotes overexpressing β-galactosidase) in Vero cells; test: T. cruzi inhibition assay, infection model in Vero cells, β-galactosidase activity; type: cell-based, Trypanosoma cruzi; conditions: 50 μM, 72 h p.i.
[2] = target: T1, CZP (Trypanosoma cruzi, UniProt P25779); test: Jump dilution assay on CZP; type: biochemical, T. cruzi; conditions: for slope of progress curve relative to control (DMSO): 10 × IC50 with 100 × [CZP] 30 min, 100× dilution, 2 h monitoring; for mode of CZP inhibition from jump dilution: in words
T1 construct: gift of Allison Doak and Prof; Brian Shoichet (University of California San Francisco)
Method: Jump dilution assay. […] Fluorescence intensities were monitored continuously for 2 h.

[3] = target: T1, CZP; test: Aggregation assays (Triton X-100 sensitivity, BSA preincubation) on CZP; type: biochemical, T. cruzi; conditions: for CZP activity inhibition percentage, Triton 0% + BSA: compound at its IC50, 10-min preincubation with 4 mg/mL BSA; for CZP activity inhibition percentage, Triton 0% / CZP activity inhibition percentage, Triton 0.01% / CZP activity inhibition percentage, Triton 0.1%: compound at its IC50, 10 min preincubation
Method: Aggregation Assays. To evaluate detergent sensitivity, CZP was pre-incubated with compounds at their IC50 for 10 min at room temperature in varying concentrations of Triton X-100 (0%, 0.1% and 0.01%). […] For comparison, the four conditions were assayed in parallel. Aggregation was excluded when the difference in inhibition percentages between the different conditions was less than 20%.

[4] = system: Vero cells; test: Cytotoxicity assay, Alamar blue; type: cell-based; conditions: 50 μM, 96 h incubation
Method: To evaluate the viability of Vero cells, the Alamar blue method was followed. First, 10^4 Vero cells/well in 100 μ L MEM-10% FBS were seeded in 96-well culture plates. After 24 h, 50 μ M inhibitor solution was added to cell monolayers and incubated for 96 h. After incubation, resazurin solution (final concentration 10 μ g·mL^−1) was added to each well, and fluorescence was measured after 2 h in a Synergy HTX multi-mode microplate reader (Biotek Instruments, Winooski, VT, USA) using the […] filters. Each condition was tested in triplicate and in at least three independent experiments.

[5] = target: T2, recombinant human cathepsin L (hCatL) (Homo sapiens, UniProt P07711); test: hCatL screening, cleavage of Z-FR-AMC; type: biochemical; conditions: for selectivity for CZP over hCatL in words: 100 μM; for inhibition at 100 µM: 10 min incubation, read-out: % hCatL inhib.
T2 construct: purchased Sigma-Aldrich
Method: The recombinant human cathepsin L (hCatL) (Sigma-Aldrich) was activated prior to the assays. First, 10 ng/ μ L of the enzyme was incubated in the activation buffer (50 mM MES, pH 6, 1 mM EDTA, 5mM DTT) for 30 min at 37 °C. hCatL activity was measured based on the cleavage of the fluorescent substrate Z-FR-AMC in a Biotec 87 Synergy 2 fluorimeter at the Multiuser Laboratory of the Biochemistry and Immunology Department (UFMG, Brazil). The assays were executed in 96-well round bottom black plates in 50 mM MES buffer, pH 6, containing 1 mM EDTA, 5 mM DTT, 0.001% Triton-X100, 5 pg/ μ L enzyme and 25 μ M Z-FR-AMC at 37 °C. The triazole-based derivatives were tested against hCatL, at 100 μ M, with a 10 min pre-incubation with the enzyme. The initial velocities of the DMSO control were compared to those in the presence of the compounds. Assays were executed in triplicate in two independent experiments, and enzyme activity was measured for 20 min.

[6] = system: T. cruzi (Tulahuen trypomastigotes overexpressing β-galactosidase) in Vero cells; test: T. cruzi inhibition assay, infection model in Vero cells, β-galactosidase activity; type: cell-based, Trypanosoma cruzi; conditions: for anti-T. cruzi/cytotoxicity balance in words: 50 μM (Ald-4 20 μM)
Method: To perform the assay, the drug screening method reported by Buckner et al. was adapted. Vero cells were seeded at 1 × 10^4 per well on 96-well culture plates in 100 μ L MEM-5% FBS. Tulahuen trypomastigotes overexpressing the E. coli β -galactosidase protein were distributed in triplicates on the plate. After a 2 h incubation at 37 °C, the culture media were extracted and replaced with fresh MEM-5% FBS with 1 μ M, 10 μ M or 50 μ M solutions of the triazole-based inhibitors, and the plate was incubated another 72 h at 37 °C. Ninety-six hours post infection, the cell culture media were removed and cells and intracellular amastigotes were lysed in 100 μ L lysis buffer (25 mM Tris pH 8, 2 mM EDTA, 2 mM DTT, 1% Triton X-100, 10% glycerol in ultrapure MQ water) for 10 min at 37 °C. Then, 100 μ L 2× reaction buffer (200 mM sodium phosphate pH 8, 2 mM MgCl2, 100 mM 2-mercaptoethanol and 1.33 mg.mL^−1 o-nitrophenyl- β -galactoside (ONPG)) was added and the reaction was allowed to proceed until a yellow color developed (1–2 h at 37 °C). The absorbance at 420 nm was measured in a Synergy HTX multi-mode microplate reader (Biotek Instruments, Winooski, VT, USA) and normalized to the value obtained for the infection in the absence of inhibitors. To determine its IC50, Ald-6 was evaluated at nine different concentrations (0.098, 0.195, 0.39, 0.78, 1.56 3.13 6.25, 12.5 and 50.0 μ M), following the same protocol. Each infection condition and inhibitor were tested in triplicates in four independent experiments.

[7] = target: T3, recombinant CZP (cruzain) (Trypanosoma cruzi, UniProt P25779); test: CZP inhibition, cleavage of fluorogenic substrate Z-FR-AMC (initial screening and IC50); type: biochemical, T. cruzi
T3 construct: gift of Allison Doak and Prof; Brian Shoichet (University of California San Francisco)
Method: The previously reported methods were followed to evaluate the in vitro activity against CZP [91, 92, 93, 94]. Allison Doak and Prof. Brian Shoichet (University of California San Francisco, San Francisco, CA, USA) generously provided recombinant CZP (cruzain). The enzyme activity was measured by monitoring the cleavage of the fluorogenic substrate Z-FR-AMC at 25 °C. Unless stated otherwise, assays were performed using 2.5 μ M of substrate ( KM = 0.5 ± 0.1 μ M) and 0.5 nM CZP in a 0.1 M sodium acetate buffer, pH 5.5, 0.01% Triton X-100 and 2 mM β -mercaptoethanol. DMSO and 1 μ M E-64 were employed as negative and positive controls, respectively, in all assays. Fluorescence was monitored at 340/440 nm (excitation/emission) over time in a Biotec 87 Synergy 2 fluorimeter at the Multiuser Laboratory of the Biochemistry and Immunology Department (UFMG, Belo Horizonte, Brazil). All assays were performed in triplicate in two independent experiments.
Initial screening. For the initial screening against CZP, compounds at 100 μ M were tested against CZP with and without a 10min pre-incubation with the enzyme. The fluorescence was monitored for 10 min at 5 s intervals. DMSO and E-64 were employed in all assays as negative and positive controls, respectively. Initial velocities of the negative control (DMSO) were compared to those in the presence of compounds to calculate the percentage of inhibition. The reported values correspond to the mean and standard error of the mean (SEM) of experiments performed in triplicate in two independent experiments.
IC50 determination. Compounds in at least eight distinct compound concentrations (400 μ M, 100 μ M, 25 μ M, 6.25 μ M, 1.5 μ M, 0.4 μ M, 0.1 μ M and 0.025 μ M) were incubated with CZP for 10 min, and once the substrate was added, the fluorescence was monitored for 10 min at 5 s intervals. IC50 curves were obtained from a non-linear fit of the inhibition values versus the logarithmic concentration of the compounds. The reported IC50 values are the mean and SEM of two independent measurements performed in triplicate.

[8] = target: T1, CZP; test: Mechanism of CZP inhibition (Michaelis-Menten, Lineweaver-Burk); type: biochemical, T. cruzi
Method: Mechanism of inhibition. […] The results were calculated by nonlinear (Michaelis–Menten) and linear regression (Lineweaver–Burk plots). The effect of the inhibitor concentration on the KMapp and its Ki was evaluated by the general linear F-test.

[9] = system: T. cruzi; design: method as in PMID 18435536, PMID 9705954, PMID 20088534; conditions: cited from earlier work
[10] = 100 μM, 10 min pre-incubation of the enzyme with compound, read-out: % CZP inh.
[11] = 10 min incubation with CZP, mean ± SEM of two independent experiments, read-out: IC50 (μM) against CZP
[12] = read-out: % CZP inhib. wo/inc., 100 μM, without prior incubation

T2 sequence (P07711 114-333): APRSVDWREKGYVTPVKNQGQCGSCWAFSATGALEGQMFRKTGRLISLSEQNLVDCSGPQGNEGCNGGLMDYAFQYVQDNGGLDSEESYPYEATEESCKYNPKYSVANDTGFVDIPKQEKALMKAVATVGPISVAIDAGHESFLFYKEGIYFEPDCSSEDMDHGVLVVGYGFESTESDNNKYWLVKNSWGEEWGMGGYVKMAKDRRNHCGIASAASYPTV
T3 sequence (P25779 123-337): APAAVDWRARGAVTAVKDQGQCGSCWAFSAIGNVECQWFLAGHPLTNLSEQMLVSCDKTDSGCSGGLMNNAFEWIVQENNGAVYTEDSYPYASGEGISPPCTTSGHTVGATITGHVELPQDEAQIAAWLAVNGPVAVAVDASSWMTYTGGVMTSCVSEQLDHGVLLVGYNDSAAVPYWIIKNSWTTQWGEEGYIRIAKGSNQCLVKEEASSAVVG
T1 sequence (P25779 123-337): as above

SMILES	CZP activity inhibition percentage, Triton 0% + BSA [3] [%]	CZP activity inhibition percentage, Triton 0% [3] [%]	CZP activity inhibition percentage, Triton 0.01% [3] [%]	CZP activity inhibition percentage, Triton 0.1% [3] [%]	cytotoxicity, uninfected Vero cell viability in words [4]	selectivity for CZP over hCatL in words [5]	inhibition at 100 µM [5] [%]	anti-T. cruzi/cytotoxicity balance in words [6]	inhibition at 100 µM [7, 10] [%]	other results
NCCCCC(C=O)n1cc(C(NCc2ccc3c(c2)OCO3)C2CCCCC2)nn1 (centres unmarked) [Ald-6]	37± 3	43± 5	31± 3	44± 4	low cytotoxicity	selective CZP inhibitors	26 ± 5	acceptable anti-T. cruzi/cytotoxicity balance	81 ± 2	reduction of infection [1]: 97%; slope of progress curve relative to control (DMSO) [2]: about 12%; mode of CZP inhibition from jump dilution [2]: covalent irreversible inhibition; reduction in T. cruzi infection ([6]; 1 μM): 27%; parasite survival ([6]; 10 μM, after 72 h of incubation): 7%; IC50 ([6]; Trypanosoma cruzi, TULAHUEN, Vero, read-out: IC50^Tc): 3.2 ± 0.4 µM; IC50^Tc/IC50^CZP ratio ([6]; translation ratio): 0.97 ± 0.16; IC50 [7, 11]: 3.3 ± 0.3 µM; inhibition at 100 µM [7, 12]: 18 ± 3%
O=CC(CO)n1cc(C(NCc2ccc3c(c2)OCO3)C2CCCCC2)nn1 (centres unmarked) [Ald-10]	43± 2	47± 6	43± 2	46± 8	low cytotoxicity	selective CZP inhibitors	7 ± 2	acceptable anti-T. cruzi/cytotoxicity balance	87 ± 1	reduction of infection [1]: 97%; slope of progress curve relative to control (DMSO) [2]: ~24%; mode of CZP inhibition from jump dilution [2]: covalent irreversible inhibition; reduction of T. cruzi viability ([6]; 10 μM): 38%; IC50 [7]: 3.4 ± 0.5 µM; inhibition at 100 µM [7, 12]: 21 ± 1%
O=CC(CO)n1cc(C(C2CCCCC2)N2CCc3ccccc3C2)nn1 (centres unmarked) [Ald-20]						selective CZP inhibitors	0	acceptable anti-T. cruzi/cytotoxicity balance	83 ± 3	IC50 [7]: 7 ± 4 µM
COC(=O)C(CS)n1cc(C(NCc2ccc3c(c2)OCO3)C2CCCCC2)nn1 (centres unmarked) [Es-14]					significantly reduced cell viability	selective CZP inhibitors	0		≥ 47	
COC(=O)C(CCCNC(=N)N)n1cc(C(NCc2ccc3c(c2)OCO3)C2CCCCC2)nn1 (centres unmarked) [Es-15]	40± 3	44± 5	41± 1	36± 7		selective CZP inhibitors	26 ± 16	acceptable anti-T. cruzi/cytotoxicity balance		Ki ([8]; calculated, general linear F-test p = 0.0127): 3 ± 1 µM; mechanism of CZP inhibition ([8]; in words): mixed mechanism of inhibition; α value ([8]; mixed-model fit of Michaelis-Menten data): 8.3; inhibition at 100 µM ([7]; 100 μM, without prior incubation, read-out: % CZP inhib. wo/inc.): 81 ± 2%; IC50 [7, 11]: 6.8 ± 0.3 µM
CN1CCN(C(=O)N[C@@H](Cc2ccccc2)C(=O)N[C@H](/C=C/S(=O)(=O)c2ccccc2)CCc2ccccc2)CC1 [K777]										IC50 [9]: ~10 µM and 10 µM
CCCCC(C(=O)COc1c(F)c(F)cc(F)c1F)n1cc([C@@](C)(NCc2ccc3ncccc3c2)C(C)C)nn1 (some centres unmarked) [Ts-370]										IC50 [9]: 5.1 µM
